From patent publication US5270302A, “Derivatives of tetrapeptides as CCK agonists” (priority 1991, dated 1993)
Read-outs that look alike come from different tables or passages of the source. *1 amine or outer side, *2 acyl side, *3 side chain or, on linkers, in order; H or OH if unused. Where a SMILES comes first, the peptide text is derived from it. Side-chain parts run from the residue outwards. [ ]: non-standard residue; d: D form. The star is where a group is joined. ξ: configuration not given here. Acryloyl(3-(pyridin-3-yl)) = O=C(C=Cc1cccnc1)*; ξαMeW = CC(N)(Cc1c[nH]c2ccccc12)C(=O)O; NMeF = CN[C@@H](Cc1ccccc1)C(=O)O; Cha = N[C@@H](CC1CCCCC1)C(=O)O; NMeD = CN[C@@H](CC(=O)O)C(=O)O; NH(2-Me-phenyl) = Cc1ccccc1N*; X15 = Clc1cccc(N*)c1Cl; Boc = CC(C)(C)OC(=O)*; X3 = O=C(C=Cc1cccs1)*; CO = O=C([*:1])[*:2]

How the values were obtained:
guinea pig gallbladder = conditions: read-out: EC50 for contraction; isolated guinea pig gallbladder, 37° C.; 50% of the compound's own maximal contraction
Procedure: Guinea Pig Gallbladder Contraction
Gallbladders were obtained from male guinea pigs (250-300 gm). The bile was emptied by a small incision and the gallbladder was suspended in an organ bath. The tissue was maintained at 37° C., suspended in Krebs-Ringer buffer (mM: NaCl, 118; KCl, 4.7; CaCl2, 2.5; MgCl2, 1.2; NaH2 PO4, 1.2; NaHCO3, 25; choline chloride, 30 mM; glucose, 11) and bubbled with 95% O2 -5% CO2. Isometric contractions were recorded with a Grass polygraph. Baseline tension was set at 0.3 grams. After equilibration for approximately 30 minutes, CCK-8 (20 nM) was introduced and tensions were recorded. After reaching maximal contractions (about 5 minutes), the drug was washed out by overflow. The CCK-8 addition was repeated twice to ensure constant force of contraction.

guinea pig acini = target: T1, guinea pig acini (Cavia porcellus, UniProt Q63931); assay: Amylase release assay in guinea pig pancreatic acini; assay type: cell-based; conditions: 30 minutes at 37° C., reference CCK-8 3×10^-10 M
T1 sequence (Q63931 1-430): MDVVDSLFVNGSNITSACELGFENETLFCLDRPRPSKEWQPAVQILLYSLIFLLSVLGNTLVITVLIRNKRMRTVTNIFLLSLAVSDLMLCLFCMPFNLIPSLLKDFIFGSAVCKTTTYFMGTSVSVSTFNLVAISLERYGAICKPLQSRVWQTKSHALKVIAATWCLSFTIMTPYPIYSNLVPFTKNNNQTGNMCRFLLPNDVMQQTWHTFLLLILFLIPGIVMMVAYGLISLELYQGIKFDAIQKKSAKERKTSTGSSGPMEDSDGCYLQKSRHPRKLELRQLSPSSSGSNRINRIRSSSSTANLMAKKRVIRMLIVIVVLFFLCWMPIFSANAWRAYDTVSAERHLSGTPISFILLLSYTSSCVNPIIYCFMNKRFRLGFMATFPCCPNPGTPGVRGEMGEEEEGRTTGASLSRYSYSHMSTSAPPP
Procedure: Protocol for Amylase Release Assay
Guinea Pig Acini Preparation
Pancreas was dissected out and connective tissues and blood vessels were removed. The pancreas was cut into small pieces (2 mm) by a scissor and placed in a 15 mL conical plastic tube containing 2.5 mL of Krebs-Ringer HEPES (KRH) buffer plus 400 units per mL of collagenase. […] The buffer was supplemented with 1% MEM vitamins, 1% MEM amino acids and 0.001% aprotinin (pancreatic basic trypsin inhibitor). […] The supernatant was discarded and 6 mL of the KRH was added to the cell pellet. […] This wash procedure was repeated once. The cell pellet from the last centrifugation step was then resuspended in 15 mL of KRH containing 0.1% BSA. […] The filtrate, containing the acini, was centrifuged at 50×g for 3 minutes. The acini were then resuspended in 5 mL of KRH-BSA buffer for 30 minutes at 37° C. under 100% O2, with a change of fresh buffer at 15 minutes.
After the 30 minutes incubation time, the acini was resuspended in 100 volumes of KRH-BSA buffer, containing 3 μM phosphoramidon and 100 μM bestatin. […] Amylase activity in the supernatant and the cell pellet were separately determined after appropriate dilutions in 0.1% Triton X-100® (a non-ionic detergent available from Sigma Chemical Co.), 20 mM NaH2 PO4, pH 7.4, by Abbott Amylase A-gent® test using the Abbott Bichromatic Analyzer 200.

Type-A CCK receptor = target: T2, Type-A CCK receptor (Cavia porcellus, UniProt Q63931); assay: Radioligand binding of [125I]BH-CCK-8 in guinea pig pancreatic membrane preparations
T2 construct: Cortical and pancreatic membranes were prepared as described; from tissue; host or cells: guinea pig pancreas membranes
T2 sequence (Q63931 1-430): T1 sequence (Q63931 1-430)
In short: (§1)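 Membranes came from male guinea pig pancreas (type A) or cerebral cortex (type B) and were resuspended in pH 7.4 HEPES-EGTA-salt buffer containing bestatin and phosphoramidon. Test compounds competed with [125I]BH-CCK-8 in 0.1% BSA: cortex 150 min at 30 °C, pancreas 150 min at 37 °C. Reactions ended by filtration; IC50 from Hill analysis.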

Type-B CCK receptor = target: T3, Type-B CCK receptor (Cavia porcellus, UniProt H0VZC5); assay: Radioligand binding of [125I]BH-CCK-8 in guinea pig cerebral cortical membrane preparations
T3 construct: Cortical and pancreatic membranes were prepared as described; from tissue; host or cells: guinea pig cerebral cortex membranes
T3 sequence (H0VZC5 1-426): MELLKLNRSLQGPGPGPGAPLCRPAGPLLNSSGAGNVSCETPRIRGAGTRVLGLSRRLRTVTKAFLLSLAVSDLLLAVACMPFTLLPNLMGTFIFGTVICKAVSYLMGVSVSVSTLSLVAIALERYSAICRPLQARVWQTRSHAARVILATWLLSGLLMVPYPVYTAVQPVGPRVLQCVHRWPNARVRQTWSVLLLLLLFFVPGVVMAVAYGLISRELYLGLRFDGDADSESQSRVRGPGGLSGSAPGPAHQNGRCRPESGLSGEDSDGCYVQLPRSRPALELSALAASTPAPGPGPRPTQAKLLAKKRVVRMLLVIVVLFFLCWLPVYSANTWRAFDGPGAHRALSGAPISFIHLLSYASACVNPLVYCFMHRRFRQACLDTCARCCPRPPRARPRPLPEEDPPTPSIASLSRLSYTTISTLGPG
In short: as §1

rats = assay: Feeding effects of acute administration of CCK agonists in rats (liquid diet); assay type: in vivo; conditions: i.p., acute (1 day)
From the text: Feeding Effects of Acute Administration of CCK Agonists in Rats
The experimental paradigm used in the above-mentioned chronic feeding studies was employed to establish dose reponses for CCK agonists of this invention on an acute (1 day) basis. Following an 8-day diet acclimation period, the rats were weighed and injected with vehicle. CCK-8 or test compound (see Table 7) at doses ranging from 1-1000 nmol/kg (i.p.). Six to ten minutes later, the rats were presented with the diet and intakes were recorded. No injections were administered prior to the P.M. feeding. Mean A.M. intakes as a percent of control were plotted versus log dose (nm/kg) to establish the dose response curve.

[1] = guinea pig pancreatic membranes, 37° C., 150 min, read-out: IC50 (nM) 125I-BH-CCK-8 Type-A receptor
[2] = guinea pig cortical membranes, 30° C., 150 minutes, read-out: IC50 (nM) 125I-BH-CCK-8 Type-B receptor
[3] = IC50 (nM) 125I-BH-CCK-8 Type-A receptor, guinea pig pancreatic membranes, 37° C., 150 min
[4] = IC50 (nM) 125I-BH-CCK-8 Type-B receptor, guinea pig cortical membranes, 30° C., 150 minutes

## Cc1ccccc1NC(=O)NCCCC[C@H](NC(=O)[C@H](Cc1c[nH]c2ccccc12)NC(=O)OC(C)(C)C)C(=O)N[C@@H](CC(=O)O)C(=O)N(C)[C@@H](Cc1ccccc1)C(N)=O [Example 33, t-BOC-Trp-Lys(ε-N-(2-methylphenyl)aminocarbonyl)-Asp-(NMe)PheNH2] (Boc-WK([CO-NH(2-Me-phenyl)])D[NMeF]-NH2)
Guinea pig gallbladder
  EC50: 10 nM

## t-BOC-Trp-Nle(6-((2-methylphenyl)aminocarbonyl)oxy)-Asp-(NMe)PheNH2 [Example 114]
Guinea pig acini
  EC50: 3 nM

## CCOC(=O)C(C)(Cc1c[nH]c2ccccc12)C(=O)N[C@@H](CCCCNC(=O)Nc1ccccc1C)C(=O)N[C@@H](CC(=O)O)C(=O)N(C)[C@@H](Cc1ccccc1)C(N)=O (stereo partly shown) [Example 107, (2-Carboethoxy-2-methyl-3-(3-indolyl)propionyl)-Lys(ε-N-(2-methylphenyl)amino-carbonyl)-Asp-(NMe)PheNH2]
Type-A CCK receptor; [1]
  IC50: 21 nM
Type-B CCK receptor; [2]
  IC50: 1400 nM
rats
  ED25, suppression of feeding (liquid diet): 3.7 nmol/kg
  ED50, dose required to decrease mean A.M. food intake by 50%: 26.1 nmol/kg

## Cc1ccccc1NC(=O)NCCCC[C@H](NC(=O)[C@H](Cc1c[nH]c2ccccc12)NC(=O)OC(C)(C)C)C(=O)N(C)[C@@H](CC(=O)O)C(=O)N(C)[C@@H](Cc1ccccc1)C(N)=O [Example 61, t-BOC-Trp-Lys(ε-N-(2-methylphenyl)aminocarbonyl)(NMe)Asp-(NMe)PheNH2] (Boc-WK([CO-NH(2-Me-phenyl)])[NMeD][NMeF]-NH2)
Type-A CCK receptor
  IC50: 4.8 nM
Type-B CCK receptor
  IC50: 10000 nM
rats
  ED25, suppression of feeding (liquid diet): 0.6 nmol/kg
  ED50, dose required to decrease mean A.M. food intake by 50%: 2.6 nmol/kg

## Cc1ccccc1NC(=O)NCCCC[C@H](NC(=O)C(C)(N)Cc1c[nH]c2ccccc12)C(=O)N[C@@H](CC(=O)O)C(=O)N[C@@H](Cc1ccccc1)C(N)=O (stereo partly drawn) [Example 97, D,L-(α-Methyl)Trp-Lys(ε-N-(2-methylphenyl)aminocarbonyl)-Asp-PheNH2] (H-[ξαMeW]K([CO-NH(2-Me-phenyl)])DF-NH2)
Type-A CCK receptor; [3]
  IC50: 11 nM
Type-B CCK receptor; [4]
  IC50: 2600 nM
rats
  ED25, suppression of feeding (liquid diet): 1.8 nmol/kg
  ED50, dose required to decrease mean A.M. food intake by 50%: 9.4 nmol/kg

## Cc1ccccc1NC(=O)NCCCC[C@H](NC(=O)[C@H](Cc1c[nH]c2ccccc12)NC(=O)OC(C)(C)C)C(=O)N[C@@H](CC(=O)O)C(=O)N[C@@H](CC1CCCCC1)C(N)=O [Example 116, t-BOC-Trp-Lys(ε-N-(2-methylphenyl)aminocarbonyl)-Asp-ChaNH2] (Boc-WK([CO-NH(2-Me-phenyl)])D[Cha]-NH2)
Type-A CCK receptor; [3]
  IC50: 10 nM
Type-B CCK receptor; [4]
  IC50: 4000 nM

## CN(C(=O)[C@H](CCCCNC(=O)C=Cc1cccs1)NC(=O)[C@H](Cc1c[nH]c2ccccc12)NC(=O)OC(C)(C)C)[C@@H](CC(=O)O)C(=O)N[C@@H](Cc1ccccc1)C(N)=O [Example 66, t-BOC-Trp-Lys-(ε-N-3-(2-thienyl)acrylyl)-(NMe)Asp-PheNH2] (Boc-WK(X3)[NMeD]F-NH2)
Type-A CCK receptor; [1]
  IC50: 35 nM
Type-B CCK receptor; [2]
  IC50: 8100 nM

## CN(C(=O)[C@H](CCCCNC(=O)C=Cc1cccnc1)NC(=O)[C@H](Cc1c[nH]c2ccccc12)NC(=O)OC(C)(C)C)[C@@H](CC(=O)O)C(=O)N[C@@H](Cc1ccccc1)C(N)=O [Example 67, t-BOC-Trp-Lys-(ε-N-3-(3-pyridyl)acrylyl)-(NMe)Asp-PheNH2] (Boc-WK(Acryloyl(3-(pyridin-3-yl)))[NMeD]F-NH2)
Type-A CCK receptor; [1]
  IC50: 40 nM
Type-B CCK receptor; [2]
  IC50: 8300 nM

## Cc1ccccc1NC(=O)NCCCC[C@H](NC(=O)C(C)(N)Cc1c[nH]c2ccccc12)C(=O)N[C@@H](CC(=O)O)C(=O)N(C)[C@@H](Cc1ccccc1)C(N)=O (single isomer, unassigned; isomer b) [Example 99, (α-Methyl)Trp-Lys(ε-N-(2-methylphenyl)aminocarbonyl)-Asp-(NMe)PheNH2 (Isomer B)]
Type-A CCK receptor; [3]
  IC50: 67 nM
Type-B CCK receptor; [4]
  IC50: > 10000 nM

## Cc1ccccc1NC(=O)NCCCC[C@H](NC(=O)CCc1c[nH]c2ccccc12)C(=O)N(C)[C@@H](CC(=O)O)C(=O)N[C@@H](Cc1cccc2ccccc12)C(N)=O [Example 103, (3-(3-Indolyl)propionyl)-Lys(ε-N-(2-methylphenyl)aminocarbonyl)-(NMe)Asp-α-NalNH2]
Type-A CCK receptor; [1]
  IC50: 6.1 nM
Type-B CCK receptor; [2]
  IC50: 6600 nM

## Cc1ccccc1NC(=O)NCCCC[C@H](NC(=O)C(Cc1c[nH]c2ccccc12)C(N)=O)C(=O)N[C@@H](CC(=O)O)C(=O)N(C)[C@@H](Cc1ccccc1)C(N)=O (stereo partly shown) [Example 106, (2-Aminocarbonyl-3-(3-indolyl)propionyl)-Lys(ε-N-(2-methylphenyl)aminocarbonyl)-Asp-(NMe)PheNH2]
Type-A CCK receptor; [1]
  IC50: 13 nM
Type-B CCK receptor; [2]
  IC50: > 10000 nM
rats
  ED25, suppression of feeding (liquid diet): 6.9 nmol/kg
  ED50, dose required to decrease mean A.M. food intake by 50%: 58.5 nmol/kg

## CC(C)(C)OC(=O)N[C@@H](Cc1c[nH]c2ccccc12)C(=O)N[C@@H](CCCCNC(=O)Nc1cccc(Cl)c1Cl)C(=O)N[C@@H](CC(=O)O)C(=O)N[C@@H](Cc1ccccc1)C(N)=O [Example 125, t-BOC-Trp-Lys(ε-N-(2,3-dichlorophenyl)aminocarbonyl)-Asp-PheNH2] (Boc-WK([CO-X15])DF-NH2)
Type-A CCK receptor; [1]
  IC50: 2.8 nM
Type-B CCK receptor; [2]
  IC50: > 10000 nM

## Cc1ccccc1NC(=O)NCCCC[C@H](NC(=O)C(F)Cc1c[nH]c2ccccc12)C(=O)N(C)[C@@H](CC(=O)O)C(=O)N[C@@H](Cc1ccccc1)C(N)=O (stereo partly shown) [Example 109, (2-Fluoro-3-(3-indolyl)propionyl)-Lys(ε-N-(2-methylphenyl)aminocarbonyl)-(NMe)Asp-PheNH2]
Type-A CCK receptor; [1]
  IC50: 15 nM
Type-B CCK receptor; [2]
  IC50: > 10000 nM

## Cc1ccccc1NC(=O)NCCCC[C@H](NC(=O)C(C)(N)Cc1c[nH]c2ccccc12)C(=O)N[C@@H](CC(=O)O)C(=O)N(C)[C@@H](Cc1ccccc1)C(N)=O (single isomer, unassigned; isomer a) [Example 98, (α-Methyl)Trp-Lys(ε-N-(2-methylphenyl)aminocarbonyl)-Asp-(NMe)PheNH2 (Isomer A)]
Type-A CCK receptor; [3]
  IC50: 4.9 nM
Type-B CCK receptor; [4]
  IC50: 3200 nM
